Measured values taken from ChEMBL document CHEMBL4477222, “Discovery of Novel Thiophene-Based, Thumb Pocket 2 Allosteric Inhibitors of the Hepatitis C NS5B Polymerase with Improved Potency and Physicochemical Profiles” (J Med Chem, 2016).
≈ marks a conversion by molar mass, not a printed value. Calls of active or inactive are those of the source. No cut-off for these calls is given here.

Experiments:
[1] = species: Homo sapiens; assay: Inhibition of human DNA polymerase-gamma by radiometric assay
[2] = Cytotoxicity against human W11.8 cells assessed as reduction in cell viability after 4 days; assay type: cell-based
[3] = target: DNA polymerase alpha catalytic subunit (Homo sapiens) (UniProt P09884); assay: Inhibition of human DNA polymerase-alpha by fluorescence/radiometric assay
[4] = target: DNA polymerase beta (Homo sapiens) (UniProt P06746); assay: Inhibition of human DNA polymerase-beta by fluorescence/radiometric assay
[5] = target: RNA-directed RNA polymerase (Hepacivirus hominis, UniProt O39930, L419M); assay: Inhibition of HCV genotype 1a NS5B L419M mutant; set-up: species or system Hepatitis C virus subtype 1a
[6] = target: RNA-directed RNA polymerase (Hepacivirus hominis, UniProt O39930, M423I); assay: Inhibition of HCV genotype 1a NS5B M423I mutant; set-up: species or system Hepatitis C virus subtype 1a
[7] = system: Hepatitis C virus subtype 1b; assay: Inhibition of HCV genotype 1b NS5B assessed as suppression of sub-genomic RNA levels at 0.5 times IC50 after 96 hrs in presence of human interferon alpha2a and ribavirin by luciferase reporter gene assay
[8] = system: Hepatitis C virus subtype 1b; assay: Inhibition of HCV genotype 1b NS5B assessed as suppression of sub-genomic RNA levels after 96 hrs in presence of telaprevir by luciferase reporter gene assay
[9] = Protein binding in rat liver at 1 uM; assay type: ADME, tissue-based; settings: read-out: PB (converted)
[10] = Protein binding in rat plasma at 1 uM; assay type: ADME, cell-free; settings: read-out: PPB (converted)
[11] = Metabolic stability in monkey liver microsomal S9 fraction assessed as compound remaining at 1 uM after 2 hrs in presence of NADPH/UDPGA; assay type: ADME, subcellular, Macaca mulatta; settings: rhesus monkey, read-out: Stability
[12] = Protein binding in monkey liver at 1 uM; assay type: ADME, tissue-based, Macaca mulatta; settings: rhesus monkey, read-out: PB (converted)
[13] = Metabolic stability in human hepatocytes assessed as compound remaining at 10 uM after 2 hrs; assay type: ADME, cell-based, Hepatocyte; settings: read-out: Stability
[14] = Metabolic stability in human liver microsomal S9 fraction assessed as compound remaining at 1 uM after 2 hrs in presence of NADPH; assay type: ADME, subcellular; settings: read-out: Stability
[15] = Metabolic stability in human liver microsomal S9 fraction assessed as compound remaining at 1 uM after 2 hrs in presence of NADPH/UDPGA; assay type: ADME, subcellular; settings: read-out: Stability
[16] = Protein binding in human liver at 1 uM; assay type: ADME, tissue-based; settings: read-out: PB (converted)
[17] = Protein binding in human plasma at 1 uM; assay type: ADME, cell-free; settings: read-out: PPB (converted)
[18] = target: T1, Cytochrome P450 3A4 (Homo sapiens, UniProt P08684); assay: Drug metabolism in human liver S9 fraction assessed as CYP3A4-mediated metabolite formation after 1 hr; assay type: ADME, subcellular; settings: s9, 1 h
[19] = Drug excretion in rat bile; assay type: ADME, tissue-based; settings: in vivo
[20] = Drug level in rat plasma; assay type: ADME, cell-free
[21] = target: Cytochrome P450 1A2 (Homo sapiens, UniProt P05177); assay: Induction of CYP1A2 (unknown origin) in hepatocytes; assay type: ADME, cell-based
[22] = target: T1, Cytochrome P450 3A4; assay: Induction of CYP3A4 (unknown origin) in hepatocytes; assay type: ADME, cell-based
[23] = system: Hepatocyte; assay: Change in CYP1A2 mRNA levels in hepatocytes (unknown origin); assay type: ADME, cell-based
[24] = Permeability from basolateral to apical side in human Caco2 cells; assay type: ADME, cell-based; settings: Caco-2, read-out: permeability
[25] = system: MDR1; assay: Efflux ratio of permeability from basolateral to apical side over apical to basolateral side in MDCK cells expressing MDR1; assay type: ADME, cell-based, Canis lupus familiaris; settings: dog
[26] = AUC (0 to infinity) in Sprague-Dawley rat at 3 mg/kg, po; assay type: ADME, organism-based; set-up: dose 3 mg/kg, route oral, time infinity; settings: in vivo
[27] = Cmax in Sprague-Dawley rat at 3 mg/kg, po; assay type: ADME, organism-based; set-up: dose 3 mg/kg, route oral; settings: in vivo
[28] = Half life in Sprague-Dawley rat at 3 mg/kg, po; assay type: ADME, organism-based; settings: in vivo
[29] = Ratio of drug level in liver to heart in Sprague-Dawley rat at 10 mg/kg, po; assay type: ADME, organism-based; settings: in vivo
[30] = Ratio of drug level in liver to kidney in Sprague-Dawley rat at 10 mg/kg, po; assay type: ADME, organism-based; settings: in vivo
[31] = Half life in dog at 3 mg/kg, po; assay type: ADME, organism-based, Canis lupus familiaris; settings: in vivo
[32] = AUC (0 to infinity) in Fischer 344 rat at 1 mg/kg, iv through bolus administration; assay type: ADME, organism-based; set-up: dose 1 mg/kg, time infinity, route intravenous; settings: in vivo
[33] = Half life in Fischer 344 rat at 1 mg/kg, iv through bolus administration; assay type: ADME, organism-based; settings: in vivo
[34] = Half life in dog at 1 mg/kg, iv through bolus administration; assay type: ADME, organism-based, Canis lupus familiaris; settings: in vivo
[35] = Volume of distribution in steady state in dog at 1 mg/kg, iv through bolus administration; assay type: ADME, organism-based, Canis lupus familiaris; settings: in vivo, read-out: Vdss
[36] = AUC (0 to infinity) in dog at 3 mg/kg, po; assay type: ADME, organism-based, Canis lupus familiaris; set-up: dose 3 mg/kg, time infinity, route oral; settings: in vivo
[37] = AUC (0 to infinity) in monkey at 1 mg/kg, iv through bolus administration; assay type: ADME, organism-based, Macaca mulatta; set-up: dose 1 mg/kg, route intravenous, time infinity; settings: rhesus monkey, in vivo
[38] = Volume of distribution in steady state in monkey at 1 mg/kg, iv through bolus administration; assay type: ADME, organism-based, Macaca mulatta; settings: rhesus monkey, in vivo, read-out: Vdss
[39] = Ratio of drug level in plasma to lungs in Sprague-Dawley rat at 10 mg/kg, po; assay type: ADME, organism-based, Lung/Plasma; settings: in vivo
[40] = Solubility of the compound in potassium phosphate buffer at pH 7; assay type: physicochemical
[41] = system: NS3 protease (Hepacivirus C), C1KIQ2 [R155K]; assay: Inhibition of telaprevir-resistant HCV NS3 protease R155K mutant; settings: Hepacivirus hominis
[42] = system: NS3 protease (Hepacivirus C), C1KIQ2 [R155T]; assay: Inhibition of telaprevir-resistant HCV NS3 protease R155T mutant; settings: Hepacivirus hominis
[43] = system: Nonstructural protein 5A (Hepatitis C virus), Q5L478 [UNDEFINED MUTATION]; assay: Inhibition of BMS-790052-resistant HCV genotype 1a NS5A M28T mutant; settings: Hepatitis C virus subtype 1a
[44] = system: Nonstructural protein 5A (Hepatitis C virus), Q5L478 [UNDEFINED MUTATION]; assay: Inhibition of BMS-790052-resistant HCV genotype 1a NS5A L31M mutant; settings: Hepatitis C virus subtype 1a
[45] = system: Nonstructural protein 5A (Hepatitis C virus), Q5L478 [Y93C]; assay: Inhibition of BMS-790052-resistant HCV genotype 1a NS5A Y93C mutant; settings: Hepatitis C virus subtype 1a
[46] = system: Nonstructural protein 5A (Hepatitis C virus), Q5L478 [UNDEFINED MUTATION]; assay: Inhibition of BMS-790052-resistant HCV genotype 1b NS5A Y93H mutant; settings: Hepatitis C virus subtype 1b
[47] = target: CYP450 (family, isoform not stated) (Homo sapiens, UniProt P04798+P05177+P05181+P08684+P10632+P10635+P11509+P11712+P13584+P20813+P20815+P20853+P24462+P24903+P33260+P33261+P51589+P78329+P98187+Q02928+Q08477+Q16678+Q16696+Q5TCH4+Q6VVX0+Q7Z449+Q8TAV3+Q96SQ9+Q9HB55); assay: Inhibition of CYP450 (unknown origin); assay type: ADME, protein assay
[48] = target: Nonstructural protein 5A (Hepatitis C virus) (UniProt Q5L478); assay: Ratio of EC50 for HCV genotype 1b NS5A infected in human l389lucubi- neo/NS3-375.1-containing Huh7ET cells in presence of 40% human serum to EC50 for HCV genotype 1b NS5A infected in human l389lucubi- neo/NS3-375.1-containing Huh7ET cells; settings: Hepatitis C virus subtype 1b

Which inhibition [1] does the source give for `CC(C)(C)C#Cc1cc(N(CC(=O)N2CCOCC2)C(=O)[C@H]2CC[C@H](C)CC2)c(C(=O)O)s1` here?
Its inhibition is “inactive”.

What about the CC50 at 96 h [2] of the same compound?
Its CC50 at 96 h is > 20000 nM.

And the inhibition [3]?
Its inhibition is “inactive”.

What about the inhibition [4] of the same compound?
The inhibition was “inactive”.

What about the EC50 [5] of the same compound?
The EC50 was 240 nM.

And the EC50 [6]?
The EC50 was 89 nM.

And the inhibition [7]?
Its inhibition is “Active”.

And the inhibition [8]?
Its inhibition is “Active”.

And the fraction unbound at 1 µM [9]?
Its fraction unbound at 1 µM is 0.162.

What about the fraction unbound at 1 µM [10] of the same compound?
Its fraction unbound at 1 µM is 0.003.

What about the remaining at 2 h, 1 µM [11] of the same compound?
Its remaining at 2 h, 1 µM is 14%.

What about the fraction unbound at 1 µM [12] of the same compound?
Its fraction unbound at 1 µM is 0.093.

And the remaining at 2 h, 10 µM [13]?
The remaining at 2 h, 10 µM was 77%.

And the remaining at 2 h, 1 µM [14]?
Its remaining at 2 h, 1 µM is 76%.

And the remaining at 2 h, 1 µM [15]?
The remaining at 2 h, 1 µM was 73%.

What about the fraction unbound at 1 µM [16] of the same compound?
The fraction unbound at 1 µM was 0.153.

And the fraction unbound at 1 µM [17]?
Its fraction unbound at 1 µM is 0.014.

What about the Drug metabolism [18] of the same compound?
The Drug metabolism was < 5%.

And the Drug excretion [19]?
Its Drug excretion is “Metabolite_Detected”.

And the Drug uptake [20]?
Its Drug uptake is “Active”.

And the Activity [21]?
The Activity was “Not Active”.

And the Activity [22]?
Its Activity is “Not Active”.

What about the Activity [23] of the same compound?
The Activity was “Non-Toxic”.

And the Papp B→A [24]?
The Papp B→A was 9.8 ×10⁻⁶ cm/s.

And the efflux ratio [25]?
The efflux ratio was 9.8.

And the AUC(0-inf) [26]?
Its AUC(0-inf) is 8860 ng·h/mL.

What about the Cmax [27] of the same compound?
Its Cmax is 1730 ng/mL.

And the half-life [28]?
Its half-life is 3.04 h.

What about the Ratio [29] of the same compound?
The Ratio was 10.

What about the Ratio [30] of the same compound?
Its Ratio is 10.

And the half-life [31]?
The half-life was 6.6 h.

And the AUC(0-inf) [32]?
The AUC(0-inf) was 1580 ng·h/mL.

And the half-life [33]?
The half-life was 1.67 h.

And the half-life [34]?
Its half-life is 9.8 h.

What about the Vd [35] of the same compound?
The Vd was 1.57 L/kg.

What about the AUC(0-inf) [36] of the same compound?
The AUC(0-inf) was 2340 ng·h/mL.

What about the AUC(0-inf) [37] of the same compound?
The AUC(0-inf) was 1730 ng·h/mL.

What about the Vd [38] of the same compound?
Its Vd is 0.23 L/kg.

What about the Ratio [39] of the same compound?
Its Ratio is 10.

And the solubility [40]?
Its solubility is 1800 µg/mL (≈ 3.79 mM).

And the inhibition [41]?
The inhibition was “Active”.

What about the inhibition [42] of the same compound?
The inhibition was “Active”.

What about the inhibition [43] of the same compound?
The inhibition was “Active”.

And the inhibition [44]?
The inhibition was “Active”.

What about the inhibition [45] of the same compound?
Its inhibition is “Active”.

What about the inhibition [46] of the same compound?
Its inhibition is “Active”.

And the IC50 [47]?
The IC50 was > 40000 nM.

And the Ratio EC50 [48]?
Its Ratio EC50 is 10 to 20.
